Experimental findings from PMC8815882, “Screening the pandemic response box identified benzimidazole carbamates, Olorofim and ravuconazole as promising drug candidates for the treatment of eumycetoma” (PLoS Neglected Tropical Diseases, 2022) are described below.

Molecules are shown by their SMILES. Read-outs that look alike come from different tables or passages of the source. Peptide text beside a SMILES is read from it.

This experiment relates to M. mycetomatis genome strain MM55. As to the kind of experiment: CLSI M38-A2 based in vitro susceptibility screening (XTT or resazurin), growth at fixed concentration. The note with it: for activity at 25 µM / activity at 100 µM / Percent fungal survival at 100 µM: Madurella mycetomatis; for Percent fungal survival at 100 µM: read-out: Percentage survival at 100um, 100 uM A (second replicate column). The class given is cell-based, Madurella mycetomatis. A general note: Tetrazolium assays rely on reduction of a dye to a coloured formazan, in cell work by metabolically active cells.

Where [1] appears, read: 25 uM, replicate A, read-out: Percentage survival at 25um, 25 um A.
Setting [2] is: 100 uM, first replicate column, read-out: Percentage survival at 100um, 100 uM A.
The mark [3] stands for this setting: 100 uM, mean of three replicates, read-out: Percentage survival at 100um, 100 uM mean.
The mark [4] stands for this setting: 100 uM, second replicate column, read-out: Percentage survival at 100um, 100 uM A.
[5] abbreviates: 100 uM, third replicate column, read-out: Percentage survival at 100um, 100 uM A.
Setting [6] is: 25 uM, mean of three replicates, read-out: Percentage survival at 25um, 25 uM mean.
The mark [7] stands for this setting: 25 uM, replicate B, read-out: Percentage survival at 25um, 25 uM B.
Setting [8] is: 25 uM, replicate C, read-out: Percentage survival at 25um, 25 uM C.
Where [9] appears, read: 25 uM, mean of replicates, read-out: Percentage survival at 25um, 25 uM mean.
[10] abbreviates: 100 uM, mean of replicates, read-out: Percentage survival at 100um, 100 uM mean.
[11] abbreviates: 100 uM, replicate 1, read-out: Percentage survival at 100um, 100 uM A.
[12] abbreviates: 100 uM, replicate 2, read-out: Percentage survival at 100um, 100 uM A.
Setting [13] is: 100 uM, replicate 3, read-out: Percentage survival at 100um, 100 uM A.
Where [14] appears, read: 100 uM, replicate 1, read-out: Percentage survival at 100um, 100 uM A (first replicate column).
[15] abbreviates: 100 uM, replicate 3, read-out: Percentage survival at 100um, 100 uM A (third replicate column).
Setting [16] is: 25 uM, mean of three, M. mycetomatis MM55, read-out: Percentage survival at 25um, 25 uM mean.
Setting [17] is: 25 uM, replicate A, M. mycetomatis MM55, read-out: Percentage survival at 25um, 25 um A.
The mark [18] stands for this setting: 25 uM, replicate B, M. mycetomatis MM55, read-out: Percentage survival at 25um, 25 uM B.
[19] abbreviates: 25 uM, replicate C, M. mycetomatis MM55, read-out: Percentage survival at 25um, 25 uM C.
Setting [20] is: 100 uM, mean of three, M. mycetomatis MM55, read-out: Percentage survival at 100um, 100 uM mean.
Setting [21] is: 100 uM, replicate 1, M. mycetomatis MM55, read-out: Percentage survival at 100um, 100 uM A (first replicate column).
Where [22] appears, read: 100 uM, replicate 2, M. mycetomatis MM55.
[23] abbreviates: 100 uM, replicate 3, M. mycetomatis MM55, read-out: Percentage survival at 100um, 100 uM A (third replicate column).
Where [24] appears, read: 25 uM, mean, read-out: Percentage survival at 25um, 25 uM mean.
The mark [25] stands for this setting: 100 uM, mean, read-out: Percentage survival at 100um, 100 uM mean.
The mark [26] stands for this setting: 100 uM, replicate (first column), read-out: Percentage survival at 100um, 100 uM A.
The mark [27] stands for this setting: 100 uM, replicate (second column), read-out: Percentage survival at 100um, 100 uM A.
Setting [28] is: 100 uM, replicate (third column), read-out: Percentage survival at 100um, 100 uM A.

`[N-]=[N+]=N[C@H]1C[C@H](n2ccc(=O)[nH]c2=O)O[C@@H]1CO` [MMV1593520]: the activity at 25 µM was 94.3% under setting [1]; 107% (read-out: Percentage survival at 25um, 25 uM B); 100% (read-out: Percentage survival at 25um, 25 uM C); 100% (read-out: Percentage survival at 25um, 25 uM mean). Besides, the activity at 100 µM by setting is: under setting [2], 91.5%; under setting [3], 87%; under setting [4], 80.1%; under setting [5], 89.4%.

Turning to `Nc1nc2c(ncn2[C@@H]2O[C@H](CO)[C@@H](O)[C@H]2F)c(=O)[nH]1` [MMV1633677], the activity at 25 µM is 85.2% under setting [6], 76.3% under setting [1], 91.2% under setting [7] and 88.1% under setting [8]. For the same compound, the activity at 100 µM under setting [2] is 85.8%, the activity at 100 µM under setting [3] was determined as 83.6%, the activity at 100 µM under setting [4] is 80.2% and the activity at 100 µM under setting [5] came to 84.7%.

With `Cn1cc(NC(=O)c2cc(NC(=O)c3ccc(/C=C/c4cnc5ccccc5c4)cc3)cn2C)cc1C(=O)NCCN1CCOCC1` [MMV1634391], the activity at 25 µM runs as follows: under setting [9], 73.9%; under setting [1], 63.4%; under setting [7], 79.1%; under setting [8], 79.2%. The activity at 100 µM is, setting by setting: under setting [10], 60.7%; under setting [11], 61%; under setting [12], 53.1%; under setting [13], 68%.

Regarding `CC[C@@H](CO)NCCN[C@@H](CC)CO` [MMV687801], the activity at 25 µM under setting [9] was 87.9%, the activity at 25 µM under setting [1] amounted to 86.9%, the activity at 25 µM under setting [7] was 87.9% and the activity at 25 µM under setting [8] was found to be 88.8%. In addition, the activity at 100 µM came out at 85.7% under setting [10], 96.9% under setting [11], 79.4% under setting [12] and 80.8% under setting [13].

As to `CCCCc1ccc(-c2cc(C(=O)O)cc(-c3ccc(Cl)cc3)n2)cc1` [MMV1580852], the activity at 25 µM stood at 33.8% under setting [6], 3.56% under setting [1], 69.1% under setting [7] and 28.7% under setting [8]. Besides, the activity at 100 µM by setting is: under setting [3], 4.07%; under setting [14], 5.06%; under setting [15], 7.62%. For the same compound, the Percent fungal survival at 100 µM (100 uM, replicate 2) was -0.471%.

For `O=C(c1nc2c(C(F)(F)F)cc(C3CC3)cn2c1Cl)N1CCN([C@H]2CC[C@H](O)CC2)C(=O)C1` [MMV1634396], the activity at 25 µM by setting is: under setting [6], 94.9%; under setting [1], 99.5%; under setting [7], 104%; under setting [8], 81.4%. Moreover, the activity at 100 µM was found to be 92.3% under setting [2], 86.8% under setting [3], 90.6% under setting [4] and 77.4% under setting [5].

For `O=C(O)c1cc(-c2ccccc2)nc2ccccc12` [MMV018362], the activity at 25 µM runs as follows: under setting [6], 91.7%; under setting [1], 97.4%; under setting [7], 94.7%; under setting [8], 83%. For the same compound, the activity at 100 µM came to 91% under setting [2], 87.9% under setting [3], 79.7% under setting [4] and 93.1% under setting [5].

As to `Nc1nc(Nc2ccc3nc(-c4ccc(F)cc4)cc(N)c3c2)cc(-c2ccccc2)n1` [MMV1593541], the activity at 25 µM amounted to 65.8% under setting [16], 82.5% under setting [17], 80.3% under setting [18] and 34.5% under setting [19]. In addition, the activity at 100 µM by setting is: under setting [20], 2.33%; under setting [21], 5.55%; under setting [23], -4.16%. In addition, the Percent fungal survival at 100 µM under setting [22] was determined as 5.6%.

Regarding `O=C(NC(=O)N1CCCc2ccccc21)c1ccc(Cl)cc1Cl` [MMV1782218], the activity at 25 µM is, setting by setting: under setting [24], 77.7%; under setting [1], 84.5%; under setting [7], 82%; under setting [8], 66.6%. Further, the activity at 100 µM is 59.4% under setting [25], 65.3% under setting [26], 55.7% under setting [27] and 57.2% under setting [28].

Regarding `OB1OCc2cc(Cl)ccc21` [MMV1634363], the activity at 25 µM is, setting by setting: under setting [24], 33.1%; under setting [1], 51.2%; under setting [7], -4.3%; under setting [8], 52.5%. The activity at 100 µM by setting is: under setting [25], 61.8%; under setting [26], 40.7%; under setting [27], 85.6%; under setting [28], 59.1%.

With `CC(N)C(=O)NC(CCCCN)C(=O)NC(CCCNC(=N)N)C(=O)NC(Cc1c[nH]cn1)C(=O)NC(Cc1c[nH]cn1)C(=O)NCC(=O)NC(Cc1ccc(O)cc1)C(=O)NC(CCCCN)C(=O)NC(CCCNC(=N)N)C(=O)NC(CCCCN)C(=O)NC(Cc1ccccc1)C(=O)NC(Cc1c[nH]cn1)C(N)=O` (stereo not shown) [MMV1579849] (H-AKRHHGYKRKFH-NH2; configuration not given here), the “Percentage survival at 25um, 25 uM mean” value (25 uM, mean of three, M. mycetomatis MM55) is given as 88.4824%. Besides, the “Percentage survival at 25um, 25 um A” value (25 uM, replicate A, M. mycetomatis MM55) amounted to 86.8656%. The “Percentage survival at 25um, 25 uM B” value (25 uM, replicate B, M. mycetomatis MM55) was determined as 93.5744%. Also, under “25 uM, replicate C, M. mycetomatis MM55”, the “Percentage survival at 25um, 25 uM C” value turned out to be 85.0073%. Further, the “Percentage survival at 100um, 100 uM mean” value (100 uM, mean of three, M. mycetomatis MM55) turned out to be 95.7644%. Under “100 uM, replicate 1, M. mycetomatis MM55”, the “Percentage survival at 100um, 100 uM A (first replicate column)” value stood at 92.1348%. Also, the “Percentage survival at 100um, 100 uM A (second replicate column)” value under setting [22] stood at 102.447%. Further, where the note is “100 uM, replicate 3, M. mycetomatis MM55”, the “Percentage survival at 100um, 100 uM A (third replicate column)” value was 92.7112%.

Consider `Cc1nc(-c2ccc(C3N(C)c4ccc(F)cc4C(=O)N3c3ccccc3)s2)cs1` (stereo not shown) [MMV1582492], for which the activity at 25 µM under setting [16] is 71%, the activity at 25 µM under setting [17] stood at 80%, the activity at 25 µM under setting [18] is 73.5% and the activity at 25 µM under setting [19] turned out to be 59.4%. The activity at 100 µM reads like this: under setting [20], 79.4%; under setting [21], 66.4%; under setting [23], 70.8%. Moreover, the Percent fungal survival at 100 µM under setting [22] stood at 101%.

In the case of `CCOc1ccc(C(=O)NCCc2ccccc2)cc1` [MMV124656], the activity at 25 µM by setting is: under setting [6], 89.4%; under setting [1], 88.1%; under setting [7], 108%; under setting [8], 71.9%. Also, the activity at 100 µM under setting [3] turned out to be 57.6%, the activity at 100 µM under setting [14] amounted to 63.4% and the activity at 100 µM under setting [15] amounted to 60.4%. In addition, the Percent fungal survival at 100 µM (100 uM, replicate 2) was 48.9%.

As to `Cn1c2ccccc2c(=O)c2c(O)cccc21` [MMV1580500], the activity at 25 µM reads like this: (25 uM, mean of replicates, MM55, read-out: Percentage survival at 25um, 25 uM mean) 65%; (25 uM, replicate A, MM55, read-out: Percentage survival at 25um, 25 um A) 63.1%; (25 uM, replicate B, MM55, read-out: Percentage survival at 25um, 25 uM B) 67.8%; (25 uM, replicate C, MM55, read-out: Percentage survival at 25um, 25 uM C) 64.2%. The activity at 100 µM runs as follows: (100 uM, mean of replicates, MM55, read-out: Percentage survival at 100um, 100 uM mean) 58.6%; (100 uM, replicate 1, MM55, read-out: Percentage survival at 100um, 100 uM A) 66.8%; (100 uM, replicate 2, MM55, read-out: Percentage survival at 100um, 100 uM A) 57.2%; (100 uM, replicate 3, MM55, read-out: Percentage survival at 100um, 100 uM A) 51.8%.
